Experimental data: US11339128B2 (Firmenich Incorporated, priority 2014, dated 2022)

Target: T1, T1R2/T1R3 taste receptor (Homo sapiens, UniProt Q7RTX0+Q8TE23)
T1 sequence (Q8TE23 20-839): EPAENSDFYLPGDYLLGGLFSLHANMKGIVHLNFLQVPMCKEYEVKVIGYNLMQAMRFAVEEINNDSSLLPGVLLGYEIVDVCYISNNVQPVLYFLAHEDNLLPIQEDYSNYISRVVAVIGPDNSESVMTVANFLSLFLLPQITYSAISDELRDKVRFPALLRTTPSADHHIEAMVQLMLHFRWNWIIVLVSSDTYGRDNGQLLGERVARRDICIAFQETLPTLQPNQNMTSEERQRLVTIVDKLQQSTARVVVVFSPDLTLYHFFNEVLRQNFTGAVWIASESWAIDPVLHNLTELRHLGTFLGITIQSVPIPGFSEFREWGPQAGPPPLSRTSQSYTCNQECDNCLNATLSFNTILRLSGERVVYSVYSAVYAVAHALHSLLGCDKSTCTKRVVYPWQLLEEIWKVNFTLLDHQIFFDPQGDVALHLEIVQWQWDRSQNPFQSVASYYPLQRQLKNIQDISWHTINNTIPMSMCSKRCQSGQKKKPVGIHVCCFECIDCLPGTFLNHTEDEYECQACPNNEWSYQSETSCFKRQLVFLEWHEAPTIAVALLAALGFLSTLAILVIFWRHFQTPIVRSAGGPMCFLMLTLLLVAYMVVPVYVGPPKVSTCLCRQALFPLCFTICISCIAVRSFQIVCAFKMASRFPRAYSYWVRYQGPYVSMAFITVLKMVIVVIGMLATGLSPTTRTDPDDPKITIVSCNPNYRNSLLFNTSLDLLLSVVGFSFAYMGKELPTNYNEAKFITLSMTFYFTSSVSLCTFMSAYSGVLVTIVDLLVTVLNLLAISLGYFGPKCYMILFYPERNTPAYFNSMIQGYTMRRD
T1 sequence (Q7RTX0 21-852): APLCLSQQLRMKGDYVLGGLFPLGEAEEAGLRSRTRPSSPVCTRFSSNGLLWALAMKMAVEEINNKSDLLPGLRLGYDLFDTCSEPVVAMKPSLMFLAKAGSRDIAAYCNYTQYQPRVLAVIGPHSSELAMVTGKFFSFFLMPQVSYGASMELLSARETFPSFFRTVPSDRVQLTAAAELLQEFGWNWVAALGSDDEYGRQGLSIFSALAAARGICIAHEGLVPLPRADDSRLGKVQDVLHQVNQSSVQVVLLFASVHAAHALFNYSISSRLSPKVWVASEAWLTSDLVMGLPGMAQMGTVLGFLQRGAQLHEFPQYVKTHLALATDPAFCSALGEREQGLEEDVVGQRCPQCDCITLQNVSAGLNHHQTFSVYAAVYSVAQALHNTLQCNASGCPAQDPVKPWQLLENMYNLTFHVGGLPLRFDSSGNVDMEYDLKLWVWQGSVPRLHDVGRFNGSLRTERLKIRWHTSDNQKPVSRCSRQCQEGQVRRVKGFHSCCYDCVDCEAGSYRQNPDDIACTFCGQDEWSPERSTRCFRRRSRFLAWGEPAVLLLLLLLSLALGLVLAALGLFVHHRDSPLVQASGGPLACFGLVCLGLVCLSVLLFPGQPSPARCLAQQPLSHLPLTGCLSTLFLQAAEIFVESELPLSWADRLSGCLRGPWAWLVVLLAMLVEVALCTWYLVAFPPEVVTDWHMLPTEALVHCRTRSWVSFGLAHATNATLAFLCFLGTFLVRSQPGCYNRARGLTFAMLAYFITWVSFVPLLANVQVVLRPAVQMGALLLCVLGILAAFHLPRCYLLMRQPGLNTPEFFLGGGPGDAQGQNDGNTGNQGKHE
Experiment: Receptor-based assay: sweetener EC50 enhancement ratio with and without test compound
Type: cell-based
Details: for Sucrose Enhancement EC50 Ratio: sweetener sucrose; for Sucralose Enhancement EC50 Ratio: sweetener sucralose; for Fructose Enhancement EC50 Ratio: sweetener fructose
Method: Potencies (EC50 values) for the sweeteners sucrose, sucralose, and fructose were measured against the T1R2/T1R3 taste receptor. EC50 was determined using the sweetener alone and in the presence of 1 μM, 3 μM, 10 μM, or 50 μM of test compound. EC50 ratios were calculated by the ratio of potency with and without the test compound. An “A” value indicates an enhancement ratio of greater than 1 and less than 10. A “B” value indicates an enhancement ratio from 10 to 20. A “C” value indicates an enhancement ratio greater than 20.

## CCCCOCC(=O)N[C@H]1CC[C@H](Oc2cccc3nc(C)c(C(=O)O)c(N)c23)CC1 [Compound 335]
1 μM test compound
  Sucrose Enhancement EC50 Ratio: B (an enhancement ratio from 10 to 20)
3 μM test compound
  Sucralose Enhancement EC50 Ratio: C (an enhancement ratio greater than 20)
  Sucrose Enhancement EC50 Ratio: C (an enhancement ratio greater than 20)

## Cc1nc2cccc(O[C@H]3CC[C@H](Nc4ccccn4)CC3)c2c(N)c1C(=O)O [Compound 701, 4-Amino-2-methyl-5-((trans-4-(pyridin-2-ylamino)cyclohexyl)oxy) quinoline-3-carboxylic acid]
1 μM test compound
  Sucrose Enhancement EC50 Ratio: A (an enhancement ratio of greater than 1 and less than 10)
3 μM test compound
  Sucralose Enhancement EC50 Ratio: C (an enhancement ratio greater than 20)
  Sucrose Enhancement EC50 Ratio: B (an enhancement ratio from 10 to 20)
10 μM test compound
  Sucralose Enhancement EC50 Ratio: C (an enhancement ratio greater than 20)
  Sucrose Enhancement EC50 Ratio: B (an enhancement ratio from 10 to 20)

## CNC(C)(C)C(=O)N[C@H]1CC[C@H](Oc2cccc3nc(C)c(C(=O)O)c(N)c23)CC1 [Compound 501]
1 μM test compound
  Sucrose Enhancement EC50 Ratio: A (an enhancement ratio of greater than 1 and less than 10)
3 μM test compound
  Sucrose Enhancement EC50 Ratio: A (an enhancement ratio of greater than 1 and less than 10)
10 μM test compound
  Fructose Enhancement EC50 Ratio: A (an enhancement ratio of greater than 1 and less than 10)
  Sucralose Enhancement EC50 Ratio: B (an enhancement ratio from 10 to 20)
  Sucrose Enhancement EC50 Ratio: A (an enhancement ratio of greater than 1 and less than 10)
50 μM test compound
  Fructose Enhancement EC50 Ratio: A (an enhancement ratio of greater than 1 and less than 10)

## Cc1nc2cccc(O[C@H]3CC[C@H](NC(=O)COCCOC(C)C)CC3)c2c(N)c1C(=O)O [Compound 329]
1 μM test compound
  Sucrose Enhancement EC50 Ratio: A (an enhancement ratio of greater than 1 and less than 10)
3 μM test compound
  Sucralose Enhancement EC50 Ratio: A (an enhancement ratio of greater than 1 and less than 10)
  Sucrose Enhancement EC50 Ratio: B (an enhancement ratio from 10 to 20)

## Cc1nc2cccc(O[C@H]3CC[C@H](NC(=O)COC(C)(C)C)CC3)c2c(N)c1C(=O)O [Compound 308]
1 μM test compound
  Sucrose Enhancement EC50 Ratio: B (an enhancement ratio from 10 to 20)

## CCCc1nc2cccc(O[C@H]3CC[C@H](C)CC3)c2c(N)c1C(=O)O [Compound 207]
1 μM test compound
  Sucrose Enhancement EC50 Ratio: A (an enhancement ratio of greater than 1 and less than 10)
3 μM test compound
  Sucrose Enhancement EC50 Ratio: A (an enhancement ratio of greater than 1 and less than 10)
10 μM test compound
  Sucrose Enhancement EC50 Ratio: A (an enhancement ratio of greater than 1 and less than 10)

## CCSCC(=O)N[C@H]1CC[C@H](Oc2cccc3nc(C)c(C(=O)O)c(N)c23)CC1 [Compound 318]
1 μM test compound
  Sucrose Enhancement EC50 Ratio: A (an enhancement ratio of greater than 1 and less than 10)
3 μM test compound
  Sucrose Enhancement EC50 Ratio: A (an enhancement ratio of greater than 1 and less than 10)
10 μM test compound
  Sucralose Enhancement EC50 Ratio: B (an enhancement ratio from 10 to 20)
  Sucrose Enhancement EC50 Ratio: B (an enhancement ratio from 10 to 20)
50 μM test compound
  Fructose Enhancement EC50 Ratio: A (an enhancement ratio of greater than 1 and less than 10)

## COCCC(=O)N[C@H]1CC[C@H](Oc2cccc3nc(C)c(C(=O)O)c(N)c23)CC1 [Compound 317]
1 μM test compound
  Sucrose Enhancement EC50 Ratio: A (an enhancement ratio of greater than 1 and less than 10)
3 μM test compound
  Sucrose Enhancement EC50 Ratio: A (an enhancement ratio of greater than 1 and less than 10)
10 μM test compound
  Sucrose Enhancement EC50 Ratio: B (an enhancement ratio from 10 to 20)

## Cc1nc2cccc(O[C@H]3CC[C@H](Nc4cnccn4)CC3)c2c(N)c1C(=O)O [Compound 713]
1 μM test compound
  Sucrose Enhancement EC50 Ratio: A (an enhancement ratio of greater than 1 and less than 10)
3 μM test compound
  Sucralose Enhancement EC50 Ratio: A (an enhancement ratio of greater than 1 and less than 10)
  Sucrose Enhancement EC50 Ratio: B (an enhancement ratio from 10 to 20)
10 μM test compound
  Fructose Enhancement EC50 Ratio: A (an enhancement ratio of greater than 1 and less than 10)
  Sucralose Enhancement EC50 Ratio: B (an enhancement ratio from 10 to 20)
  Sucrose Enhancement EC50 Ratio: B (an enhancement ratio from 10 to 20)
50 μM test compound
  Fructose Enhancement EC50 Ratio: A (an enhancement ratio of greater than 1 and less than 10)

## Cc1nc2cccc(O[C@H]3CC[C@H](NC(=O)CN4CCOCC4)CC3)c2c(N)c1C(=O)O.Cl [Compound 600, 4-Amino-2-methyl-5-((trans-4-(2-morpholinoacetamido)cyclohexyl)oxy) quinolone-3-carboxylic acid (HCl)]
1 μM test compound
  Sucrose Enhancement EC50 Ratio: B (an enhancement ratio from 10 to 20)
3 μM test compound
  Sucrose Enhancement EC50 Ratio: C (an enhancement ratio greater than 20)

## Cc1nc2cccc(O[C@H]3CC[C@H](NC(=O)COCCO)CC3)c2c(N)c1C(=O)O [Compound 334]
1 μM test compound
  Sucrose Enhancement EC50 Ratio: A (an enhancement ratio of greater than 1 and less than 10)
3 μM test compound
  Sucrose Enhancement EC50 Ratio: A (an enhancement ratio of greater than 1 and less than 10)
10 μM test compound
  Fructose Enhancement EC50 Ratio: A (an enhancement ratio of greater than 1 and less than 10)
  Sucrose Enhancement EC50 Ratio: C (an enhancement ratio greater than 20)

## CCC(CC)OCC(=O)N[C@H]1CC[C@H](Oc2cccc3nc(C)c(C(=O)O)c(N)c23)CC1 [Compound 341]
1 μM test compound
  Sucrose Enhancement EC50 Ratio: A (an enhancement ratio of greater than 1 and less than 10)
3 μM test compound
  Sucralose Enhancement EC50 Ratio: A (an enhancement ratio of greater than 1 and less than 10)
  Sucrose Enhancement EC50 Ratio: B (an enhancement ratio from 10 to 20)

## Cc1nc2cccc(O[C@H]3CC[C@H](O)CC3)c2c(N)c1C(=O)O [Compound 107]
1 μM test compound
  Sucrose Enhancement EC50 Ratio: A (an enhancement ratio of greater than 1 and less than 10)
3 μM test compound
  Sucrose Enhancement EC50 Ratio: A (an enhancement ratio of greater than 1 and less than 10)
10 μM test compound
  Sucrose Enhancement EC50 Ratio: B (an enhancement ratio from 10 to 20)

## Cc1nc2cccc(O[C@H]3CC[C@H](NC(=O)CO[C@@H]4C[C@H](C)CC[C@H]4C(C)C)CC3)c2c(N)c1C(=O)O [Compound 328]
1 μM test compound
  Sucrose Enhancement EC50 Ratio: A (an enhancement ratio of greater than 1 and less than 10)
3 μM test compound
  Sucrose Enhancement EC50 Ratio: A (an enhancement ratio of greater than 1 and less than 10)
10 μM test compound
  Sucrose Enhancement EC50 Ratio: C (an enhancement ratio greater than 20)

## Cc1nc2cccc(O[C@H]3CC[C@H](NC(=O)COCC4CCCCC4)CC3)c2c(N)c1C(=O)O [Compound 337]
1 μM test compound
  Sucrose Enhancement EC50 Ratio: A (an enhancement ratio of greater than 1 and less than 10)
3 μM test compound
  Sucrose Enhancement EC50 Ratio: C (an enhancement ratio greater than 20)

## Cc1nccc(N[C@H]2CC[C@H](Oc3cccc4nc(C)c(C(=O)O)c(N)c34)CC2)n1 [Compound 714]
1 μM test compound
  Sucrose Enhancement EC50 Ratio: A (an enhancement ratio of greater than 1 and less than 10)
3 μM test compound
  Sucralose Enhancement EC50 Ratio: A (an enhancement ratio of greater than 1 and less than 10)
  Sucrose Enhancement EC50 Ratio: A (an enhancement ratio of greater than 1 and less than 10)
10 μM test compound
  Fructose Enhancement EC50 Ratio: A (an enhancement ratio of greater than 1 and less than 10)
  Sucralose Enhancement EC50 Ratio: A (an enhancement ratio of greater than 1 and less than 10)
  Sucrose Enhancement EC50 Ratio: A (an enhancement ratio of greater than 1 and less than 10)
50 μM test compound
  Fructose Enhancement EC50 Ratio: A (an enhancement ratio of greater than 1 and less than 10)

## CCc1nc2cccc(O[C@H]3CC[C@H](COC)CC3)c2c(N)c1C(=O)O [Compound 205]
1 μM test compound
  Sucrose Enhancement EC50 Ratio: A (an enhancement ratio of greater than 1 and less than 10)
3 μM test compound
  Sucrose Enhancement EC50 Ratio: B (an enhancement ratio from 10 to 20)
10 μM test compound
  Sucralose Enhancement EC50 Ratio: B (an enhancement ratio from 10 to 20)
  Sucrose Enhancement EC50 Ratio: B (an enhancement ratio from 10 to 20)
